In patent publication US20170044230A1 (USTAV ORGANICKE CHEMIE A BIOCHEMIE AV CR, V.V.I., priority 2014, published 2017):
“Also recorded” adds a separate entry of the source. Non-standard residues stand in square brackets, D forms with d. Residues, ends and D or L forms follow the SMILES beside them. *: point of attachment. 1Nal = N[C@@H](Cc1cccc2ccccc12)C(=O)O; Myristoyl = CCCCCCCCCCCCCC(=O)*; Dap = NC[C@H](N)C(=O)O; Sar = CNCC(=O)O

Key:
[1] = molecular target: T1, human GHS-R1a receptor (Homo sapiens, UniProt Q92847); experiment: Competitive binding studies (displacement of 125I-ghrelin); conditions: relative to ghrelin = 100
T1 construct: purchased Multispan, Hayward, Calif., USA; host or cells: HEK293T cells, isolated plasma membranes
T1 sequence (Q92847 whole entry): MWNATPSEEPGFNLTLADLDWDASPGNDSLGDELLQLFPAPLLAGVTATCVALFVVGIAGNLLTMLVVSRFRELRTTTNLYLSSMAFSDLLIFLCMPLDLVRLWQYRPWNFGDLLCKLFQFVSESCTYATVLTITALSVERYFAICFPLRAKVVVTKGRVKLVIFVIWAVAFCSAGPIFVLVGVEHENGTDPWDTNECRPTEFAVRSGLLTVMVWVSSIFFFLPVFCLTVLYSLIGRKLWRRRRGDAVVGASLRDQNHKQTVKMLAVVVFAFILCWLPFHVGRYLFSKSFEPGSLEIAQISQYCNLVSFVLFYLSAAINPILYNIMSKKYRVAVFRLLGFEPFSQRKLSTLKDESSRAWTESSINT
Experimental: Isolated plasma membranes from the HEK293T cells with transfected human GHS-R1a receptor (Multispan, Hayward, Calif., USA) were used. […] Experiments were carried out in duplicates at least three times. Competitive binding curves were plotted using GraphPad Prism Software (San Diego, Calif., USA) while comparing the best fit for single binding sites models.

[2] = tested on: fed C57BL/6 male mice; experiment: Effect of SC administered ghrelin analogs on food intake; assay type: in vivo; conditions: for maximal effect at 5 mg/kg on food intake: SC 5 mg/kg, evaluated 480 min after administration; for ED50 (250 min after injection), effect on food intake: SC
Experimental: All of the experiments followed the ethical guidelines for animal experiments and Czech Republic law 246/1992 and were approved by the committee for experiments with laboratory animals of the Academy of Sciences of the Czech Republic. Male C57BL/6 mice (Charles River, Germany) were housed at a temperature 22±2° C. under a daily cycle of 12/12 h light/dark (light from 6:00) with free access to water and a standard chow diet St-1 which contained […] of calories from protein, fat and carbohydrate, respectively, and its energy content was 3.4 kcal/g (Mlýn Kocanda, Praha, Czech Republic). Mice were placed into separate cages for one week before experiment, they had free access to water and food pellets. Closely before the experiment, the food pellets were removed from the cages. […] 15 min after the injection, mice were given preweighed food pellets. Food intake was monitored for 8-10 hours at 30-min intervals. Mice had free access to water during the experiment. Experiments were performed at least twice for each tested compound, each experimental group had at least 5 mice.
Data from food intake experiments were analyzed by one-way ANOVA followed by Dunnett's post-hoc test using GraphPad Prism Software (San Diego, Calif., USA), P<0.05 was considered statistically significant. ED50 values were calculated using GraphPad Prism Software as the dose of the tested compound required to elicit half-maximal effect at 250 min after administration of the corresponding compound.
Food intake was monitored for […] after administration of the compounds. ED50 values were determined 250 min after administration. Maximal effect on food intake was evaluated […] after administration of the compounds at a dose of 5 mg/kg of body weight. NT—not tested.

[3] = Pharmacokinetics in vivo after SC administration to mice; conditions: SC 5 mg/kg
Experimental: Mice were housed at a temperature 22±2° C. under a daily cycle of 12/12 h light/dark (light from 6:00) with free access to water and a standard chow diet St-1 (Mlýn Kocanda, Praha, Czech Republic).
4, 6, 14 and 18 at a dose of 5 mg/kg of body weight (0.2 ml/mouse, n=4). Blood was collected from tails before injection and 0.5, 1, 2, 4, 8, 16 and 24 h after injection. Plasma was separated and stored at −20° C.

[4] = tested on: 4-5-week old male C57BL/6 mice; experiment: Growth hormone (GH) release after SC administration to young mice; assay type: in vivo; conditions: 10 min after SC 5 mg/kg
Experimental: 4 and 14 at a dose of 5 mg/kg of body weight (0.2 ml/mouse). 10 min after the injection, blood was collected, plasma was prepared and stored at −20° C. until use. GH levels in the plasma samples were determined by Rat/Mouse Growth Hormone ELISA kit (Merck-Millipore, St. Charles, Mo., USA). Ghrelin analogs no.

[5] = tested on: mouse model of lipopolysaccharide-induced cachexia; experiment: Mouse model of lipopolysaccharide-induced cachexia (LPS model); assay type: in vivo, mice
Experimental: Male C57BL/6 mice (Charles River, Germany) were housed at a temperature of 22±2° C. under a daily cycle of 12/12 h light/dark (light from 6:00) with free access to water and a standard chow diet St-1 (Mlýn Kocanda, Praha, Czech Republic). One week before the experiment, the mice were placed into separated cages and habituated to an automatic system for food intake monitoring (Developmental workshop IOCB, Prague, Czech Republic). Animals were randomized into two groups, LPS group and control group. At 17:00, the LPS group was injected intraperitoneally (IP) with 100 μg/kg of body weight LPS (Escherichia coli 055:B5 serotype, Sigma) in a volume of 0.2 ml saline. The control group received an IP injection with an equal volume of saline. Food intake was monitored automatically in 10-min intervals. […] 14 (n=4-5 mice per group). Food intake was monitored for another 10 hours.
At the end of the experiment, mice were sacrificed by decapitation, blood was collected, plasma was prepared and stored at −20° C. Hypothalamus was dissected, frozen on dry ice and stored at −80° C., musculus gastrocnemius was dissected, flash-frozen in liquid nitrogen and stored at -80° C. C-reactive protein levels and pro-inflammatory/anti-inflammatory cytokine levels in blood plasma were determined using C-Reactive Protein Mouse ELISA (Biovendor, Bmo, Czech Republic) and Milliplex MAP Rat Cytokine/Chemokine Magnetic Bead Panel (Merck-Millipore, St. Charles, Mo., USA), respectively. Samples of hypothalamus and muscle were homogenized, total RNA was extracted and RNA concentration was determined as previously described (Holubova et al., 2014). Determination of the mRNA expression of genes of interest (MuRFI and MAFbx in muscle, NPY and AgRP in hypothalamus) was performed using an ABI PRISM 7500 instrument (Applied Biosystems, Foster City, Calif., USA). The expression of GAPDH or GUSH was used to compensate for variations in input RNA amounts and the efficiency of reverse transcription, and the modified formula 2-ΔCt was used to calculate the relative gene expression.

[6] = tested on: rat model of subtotal nephrectomy; experiment: Rat model of renal cachexia (subtotal nephrectomy, SNx); assay type: in vivo
Experimental: Male F344 rats (Harlan, Italy) were housed at a temperature of 22±2° C. under a daily cycle of 12/12 h light/dark (light from 6:00) with free access to water and a standard chow diet St-1 (Mlýn Kocanda, Praha, Czech Republic).
To induce renal dysfunction, 5/6 nephrectomy was performed to anesthetized 8-week-old rats (SNx group, n=14); the control group was sham-operated (Sham group, n=6). Starting from the following day, the rats were SC injected with saline or ghrelin analog no. 2 (5 mg/kg of body weight, dissolved in saline) for 15 days. Food intake and body weight of the rats was monitored every day. At the end of the experiment, blood was collected for determination of pro-inflammatory cytokines using the Milliplex MAP Rat Cytokine/Chemokine Magnetic Bead Panel (Merck-Millipore, St. Charles, Mo., USA).

[7] = tested on: rat model of aortic stenosis-induced cachexia; experiment: Rat model of aortic stenosis-induced cachexia; assay type: in vivo; conditions: 28-day continuous IP infusion
Experimental: Cachexia induced through the aortic stenosis (AS) was made in male Wistar rats, aged 8-9 months (Harlan, Italy). Rats were housed at a temperature of 22±2° C. under a daily cycle of 12/12 h light/dark (light from 6:00) with free access to water and a standard chow diet (Altromin, Germany).
The animals were anesthetized with isoflurane and the aortic stenosis was induced via abdominal incision. […] A steel wire (diameter 0.4 mm) was placed alongside the isolated aorta, both were gently tightened with a stitch (3-0 silk tread), and the wire was removed accordingly. […] Finally, the abdomen was sutured and the animals were kept in standard conditions with free access to regular rat chow and water ad libitum. The Sham group consisted of sham-operated rats prepared by a similar surgical treatment without aortic stenosis.
Mortality was about 5% within 72 h after stenosis. All animal experiments were approved by the Institutional Animal Experimental Ethics Committee of the Institute of Physiology AS CR. […] 2 dissolved in vehicle (2.5 mg/kg of body weight per day) for 28 days (n=5). Food intake and body weight of the rats was monitored every day.

[8] = single SC 5 mg/kg after LPS, 5 mg/kg
[9] = single SC administration, LPS model
[10] = 15-day SC 5 mg/kg, vs SNx/saline, 5 mg/kg

Structure (SMILES) | % of ghrelin binding [1] [%] | maximal effect at 5 mg/kg on food intake [2] | ED50 (250 min after injection), effect on food intake ([2]; fed mice) [mg/kg] | stability in vivo compared with ghrelin or Dpr^3ghrelin [3] | half-life ([3]; male, C57BL/6, mouse, plasma) [h] | GH levels in plasma [4] | levels of C-reactive protein ([5]; single SC 5 mg/kg after LPS) | levels of pro-inflammatory cytokine IL-2 ([5]; single SC 5 mg/kg after LPS) | food intake ([5]; single SC 5 mg/kg after LPS, monitored 10 hours, 5 mg/kg) | expression of mRNA for orexigenic neuropeptides NPY and AgRP in hypothalamus [5, 8] | mRNA expression for markers of muscle degradation MuRF-1 and MAFbx [5, 8] | cachectic state [5, 9] | plasmatic levels of pro-inflammatory cytokines [5, 9] | levels of anti-inflammatory cytokine IL-10 (in words) ([6]; 15-day SC 5 mg/kg, vs SNx/saline) | body weight of SNx rats [6, 10] | levels of pro-inflammatory cytokines (in words) [6, 10] | cachectic state ([6]; repeated SC administration, SNx rats) | cachectic state [7] | body weight of AS rats ([7]; 2.5 mg/kg per day) | orexigenic effect (cumulative food intake), dose dependence ([2]; SC 0.2, 1, 5 and 10 mg/kg, fed mice)
CCCCCCCCCCCCCC(=O)NC[C@H](NC(=O)[C@H](CO)NC(=O)CNC)C(=O)N[C@@H](Cc1ccc(Cl)c(Cl)c1)C(=O)N[C@@H](CC(C)C)C(=O)N[C@@H](CO)C(=O)N1CCC[C@H]1C(=O)N[C@@H](CCC(=O)O)C(=O)N[C@@H](Cc1c[nH]cn1)C(=O)N[C@@H](CCC(N)=O)C(=O)N[C@@H](CCCCN)C(=O)N[C@@H](C)C(=O)N[C@@H](CCC(N)=O)C(=O)N[C@@H](CCC(N)=O)C(=O)N[C@@H](CCCNC(=N)N)C(=O)N[C@@H](CCCCN)C(=O)N[C@@H](CCC(=O)O)C(=O)N[C@@H](CO)C(=O)N[C@@H](CCCCN)C(=O)N[C@@H](CCCCN)C(=O)N1CCC[C@H]1C(=O)N1CCC[C@H]1C(=O)N[C@@H](C)C(=O)N[C@@H](CCCCN)C(=O)N[C@@H](CC(C)C)C(=O)N[C@@H](CCC(N)=O)C(=O)N1CCC[C@H]1C(=O)N[C@@H](CCCNC(=N)N)C(=O)O [Analog 14] | 7 | 235.5 % of Dpr^3ghr | 0.65 | significantly more stable than ghrelin or Dpr^3ghrelin | 5 | did not alter the GH levels | tended to normalize levels of C-reactive protein | normalized levels of pro-inflammatory cytokine IL-2 | significant increase in food intake; also recorded: increased food intake | significantly increased expression of mRNA; also recorded: increased expression of orexigenic neuropeptides in the hypothalamus | tended to decrease mRNA expression; also recorded: tended to decrease expression of markers of muscle degradation | improved the cachectic state | reduced plasmatic levels of pro-inflammatory cytokines |  |  |  |  |  |  | 
CCCCCCCCCCCCCC(=O)NC[C@H](NC(=O)[C@H](CO)NC(=O)CNC)C(=O)N[C@@H](Cc1ccccc1)C(=O)N[C@@H](CC(C)C)C(=O)N[C@@H](CO)C(=O)N1CCC[C@H]1C(=O)N[C@@H](CCC(=O)O)C(=O)N[C@@H](Cc1c[nH]cn1)C(=O)N[C@@H](CCC(N)=O)C(=O)N[C@@H](CCCCN)C(=O)N[C@@H](C)C(=O)N[C@@H](CCC(N)=O)C(=O)N[C@@H](CCC(N)=O)C(=O)N[C@@H](CCCNC(=N)N)C(=O)N[C@@H](CCCCN)C(=O)N[C@@H](CCC(=O)O)C(=O)N[C@@H](CO)C(=O)N[C@@H](CCCCN)C(=O)N[C@@H](CCCCN)C(=O)N1CCC[C@H]1C(=O)N1CCC[C@H]1C(=O)N[C@@H](C)C(=O)N[C@@H](CCCCN)C(=O)N[C@@H](CC(C)C)C(=O)N[C@@H](CCC(N)=O)C(=O)N1CCC[C@H]1C(=O)N[C@@H](CCCNC(=N)N)C(=O)O [Analog 2] | 54 | 202.7 % of Dpr^3ghr | 3.80 |  |  |  |  |  |  |  |  |  |  | significantly increased | significantly increased body weight | significantly decreased levels of these cytokines; also recorded: reduced blood levels of pro-inflammatory cytokines | improved the cachectic state | improved the cachectic state | significantly increased body weight | 
CCCCCCCCCCCCCC(=O)NC[C@H](NC(=O)[C@H](CO)NC(=O)CNC)C(=O)N[C@@H](Cc1cccc2ccccc12)C(=O)N[C@@H](CC(C)C)C(=O)N[C@@H](CO)C(=O)N1CCC[C@H]1C(=O)N[C@@H](CCC(=O)O)C(=O)N[C@@H](Cc1c[nH]cn1)C(=O)N[C@@H](CCC(N)=O)C(=O)N[C@@H](CCCCN)C(=O)N[C@@H](C)C(=O)N[C@@H](CCC(N)=O)C(=O)N[C@@H](CCC(N)=O)C(=O)N[C@@H](CCCNC(=N)N)C(=O)N[C@@H](CCCCN)C(=O)N[C@@H](CCC(=O)O)C(=O)N[C@@H](CO)C(=O)N[C@@H](CCCCN)C(=O)N[C@@H](CCCCN)C(=O)N1CCC[C@H]1C(=O)N1CCC[C@H]1C(=O)N[C@@H](C)C(=O)N[C@@H](CCCCN)C(=O)N[C@@H](CC(C)C)C(=O)N[C@@H](CCC(N)=O)C(=O)N1CCC[C@H]1C(=O)N[C@@H](CCCNC(=N)N)C(=O)O [Analog 4] (H-[Sar]S[Dap](Myristoyl)[1Nal]LSPEHQKAQQRKESKKPPAKLQPR-OH; N-terminus and C-terminus assumed) | 57 | 212.8 % of Dpr^3ghr | 6.02 | significantly more stable than ghrelin or Dpr^3ghrelin |  | did not alter the GH levels |  |  |  |  |  |  |  |  |  |  |  |  |  | dose-dependent orexigenic effect
